Test results published in patent US7344531B2, “Thermal surgical procedures and compositions” (Regents of the University of Minnesota, priority 2003, dated 2008).
Entries after “also recorded” stand apart in the source; their conditions may differ.

Experiments:
[1] = test system: LNCaP Pro 5 human prostate cancer tumor tissue; test: Cryosurgery of TNF-alpha pre-inflamed LNCaP Pro 5 tumor in dorsal skin flap chamber (DSFC); type: in vivo, male athymic nude mice
Protocol: The dorsal skin flap chamber (DSFC) of male athymic nude mice was seeded with the tumor LNCaP […] human prostate cancer, inflamed with TNF-alpha, subjected to cryosurgery, and assessed according to the following procedure. The dorsal skin of a male athymic nude mouse was sandwiched between two identical anodized aluminum frames, a 19 millimeter (mm) by 22 mm chamber was mounted onto the mouse by three screws, the skin was attached to the chamber with 4-O silk using suture holes, and the skin on the side of the viewing region was removed, exposing the dermis containing the microvasculature on the opposite side of the skin. To provide chambers having tumors, approximately 5×10^6LNCaP […] human prostate tumor cells were mixed with MATRIGEL matrix (BD Biosciences, Bedford, Mass.) as described by Lim et al. (Prostate, 22:109-118 (1993)). Approximately 30 μl of the cell suspension was applied to the surface of the microvascular bed immediately after the initial chamber implantation and the tumor was allowed to grow for 10 days, the skin reaching a total thickness of about 450 micrometers (μm) and the tumor extending approximately 10 mm in diameter. […] After four (4) hours, the mouse was anesthetized, TNF-alpha-induced inflammation was measured by observation of leukocyte rolling, and thereafter cryosurgery was immediately performed in the inflamed tissue. […] The temperature at each thermocouple was recorded using a HYDRA DATA LOGGER SERIES 2 (Fluke, Everett, Wash.). […] The dorsal skin flap chamber was then illuminated with a mercury lamp and a FITC signal-enhancing filter (λ=470-490 nm) to view the contrast fluorescence. A Silicon Intensified Transmission camera (Hamamatsu, North Central Instruments, Twin Cities, Minn.) was used to detect the fluorescent signal, and the signal was recorded with a JVC S-VHS video recorder (JVC Company of America, Aurora, Ill.). […] The end temperature of the cryolesion and the thermal parameters within the cryosurgical ice ball were calculated according to the methods of Chao et al. (Cryobiology, 2004 (in press)). […]

[2] = test system: normal nude mouse hypodermis (normal skin); test: Cryosurgery of TNF-alpha pre-inflamed normal skin in dorsal skin flap chamber (DSFC); type: in vivo
[3] = test system: Human dermal microvascular endothelial cells (MVEC); test: Enhancement of direct cellular injury by freeze/thaw after TNF-alpha exposure, MVEC; type: cell-based
Protocol: Cell suspensions of human endothelial cells (MVECs) were used to assess the enhancement of direct cellular injury (DCI) by use of an adjuvant, wherein the adjuvant used is TNF-alpha.
Human dermal microvascular endothelial cells (MVEC) were prepared and grown as adherent monolayers as described by Gupta et al., Experimental Cell Research, 230:244-251 (1997), maintained in a 37° C./5% CO2/95% humidified air environment in T-flasks pre-coated with 1% gelatin in MCDB 131 medium supplemented with 20% heat-inactivated human male serum, hydrocortisone, cAMP, L-glutamine, heparin, endothelial cell growth supplement (Vec Tec, Schenectady, N.Y.) and antibiotics. […]
Control and experimental F/T groups were then assessed for cell viability at varying time points starting 3 hours after intervention. Cell viability was measured microscopically by a fluorescent dye assay (cell viability assay) by an apoptotic/necrotic assay.
The fluorescent dye assay was used to assess the plasma membrane integrity of cells immediately before (control) and after F/T using Hoechst 33342 and propidium iodide (PI). […] Cells were incubated with 9 μM Hoechst 33342 and 7 μM PI for 15 minutes at 37° C., placed on a microslide, cover-slipped and the percentage of dead cells/field determined at 200X using a fluorescent microscope (Olympus BX-50, Tokyo, Japan). […]

[4] = test system: MCF-7 breast cancer cells; test: Enhancement of direct cellular injury by freeze/thaw after TNF-alpha exposure, MCF-7; type: cell-based
[5] = test system: LNCaP Pro 5 prostate cancer cells; test: Enhancement of direct cellular injury by freeze/thaw after TNF-alpha exposure, LNCaP Pro 5; type: cell-based, human
[6] = TNF-alpha 10 ng/ml to 1 μg/ml for 4 to 48 hours before freeze/thaw

TNF-alpha
position of the edge of the static zone relative to the edge of the ice ball ([1]; LNCaP Pro 5 tumor tissues treated with TNF-alpha): extended beyond the edge of the ice ball
radius of the edge of the static zone (zone of vascular stasis) ([1]; day 3 post cryosurgery, LNCaP Pro 5 tumor tissue, local 0.2 ng TNF-alpha 4 hours before cryosurgery): 4.07±0.34 mm
increase of the threshold temperature of cryo-destruction versus tissue without TNF-alpha ([1]; local use of TNF-alpha, LNCaP Pro 5 tumor tissue): more than 10 °C
minimum temperature required for cryo-destruction ([2]; TNF-alpha-treated normal skin): −9.8±5.8 °C
position of the edge of the static zone relative to the edge of the ice ball ([2]; inflamed normal skin tissues treated with TNF-alpha): stayed within the edge of the ice ball; also recorded: moved the edge of the static zone closer to the edge of the cryosurgical ice ball
radius of the edge of the static zone (zone of vascular stasis) ([2]; normal nude mouse hypodermis treated with TNF-alpha, day 3 post cryosurgery): 3.99±0.13 mm
cryosensitivity of cells in vitro [3, 6]: increase cryosensitivity
necrosis of inflamed cells in vitro ([3]; apoptosis/necrosis assay): increased necrosis
cryosensitivity of cells in vitro [4, 6]: increase cryosensitivity
necrosis of inflamed cells in vitro ([4]; apoptosis/necrosis assay): increased necrosis
cryosensitivity of cells in vitro [5, 6]: increase cryosensitivity
necrosis of inflamed cells in vitro ([5]; apoptosis/necrosis assay): increased necrosis
